Assay [1] has as its system MCF7. The assay can be described thus: Estrogenic activity in human MCF7 cells assessed as induction of cell proliferation at 100 nM after 6 days by fluorescence assay. The assay is classed as functional, cell-based.
The test system of assay [2] is MCF7. The assay can be described thus: Estrogenic activity in human MCF7 cells assessed as induction of cell proliferation at 0.001 to 1 nM after 6 days by fluorescence assay. In kind it is functional, cell-based.
Assay [3] addresses T1, Estrogen receptor beta (Homo sapiens, UniProt Q92731).
Description: Binding affinity to ERbeta by fluorescence polarization-based competitive binding assay
Assay [4] has as its target T1, Estrogen receptor beta. This is another data set of the same source.
Description: Transactivation of human ERbeta expressed in HEK293 cells after 18 hrs by luciferase reporter gene assay
Assay [5] deals with T2, Estrogen receptor (Homo sapiens, UniProt P03372).
T2 sequence (P03372 whole entry): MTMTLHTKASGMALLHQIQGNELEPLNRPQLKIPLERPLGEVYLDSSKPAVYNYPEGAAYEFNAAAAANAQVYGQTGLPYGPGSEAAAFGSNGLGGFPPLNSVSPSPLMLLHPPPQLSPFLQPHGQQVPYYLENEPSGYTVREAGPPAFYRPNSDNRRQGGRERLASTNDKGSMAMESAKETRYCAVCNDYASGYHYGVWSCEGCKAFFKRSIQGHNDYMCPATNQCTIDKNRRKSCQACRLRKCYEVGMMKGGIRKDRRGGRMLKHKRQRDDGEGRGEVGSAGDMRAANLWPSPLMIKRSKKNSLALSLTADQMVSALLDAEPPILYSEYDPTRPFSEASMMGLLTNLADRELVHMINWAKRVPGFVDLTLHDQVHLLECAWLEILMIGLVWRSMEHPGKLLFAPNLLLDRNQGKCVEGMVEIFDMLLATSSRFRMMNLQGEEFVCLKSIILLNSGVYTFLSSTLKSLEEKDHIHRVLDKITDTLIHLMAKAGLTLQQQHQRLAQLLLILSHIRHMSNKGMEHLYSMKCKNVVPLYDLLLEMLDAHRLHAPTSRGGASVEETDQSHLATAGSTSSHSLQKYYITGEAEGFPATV
Description: Binding affinity to ERalpha by fluorescence polarization-based competitive binding assay

Assay [6] has as its target T2, Estrogen receptor. The source holds these as a separate data set.
Description: Transactivation of human ERalpha expressed in HEK293 cells after 18 hrs by luciferase reporter gene assay
The subject of assay [7] is MCF7. Briefly: Estrogenic activity in human MCF7 cells assessed as induction of cell proliferation at 1 nM after 6 days by fluorescence assay. In kind it is functional, cell-based.
The species named for a further assay is Homo sapiens. The assay can be described thus: Selectivity ratio of EC50 for human ERbeta to EC50 for human ERalpha.

Values joined by “and” are separate entries in the source; they are usually repeats but may differ in a detail not shown here. Equal entries are not always repeated. Active and inactive are the calls of the source. The rule behind the calls is not given here.

The text below walks through data of ChEMBL document CHEMBL1157750, “Synthesis and evaluation of 17alpha-arylestradiols as ligands for estrogen receptor alpha and beta” (J Med Chem, 2010).

The IC50 is the concentration at which inhibition is half-maximal. A low value points to greater potency. One may read the EC50 as the concentration at which the effect is half-maximal. A higher EC50 goes with weaker potency.

T1 sequence (Q92731 whole entry): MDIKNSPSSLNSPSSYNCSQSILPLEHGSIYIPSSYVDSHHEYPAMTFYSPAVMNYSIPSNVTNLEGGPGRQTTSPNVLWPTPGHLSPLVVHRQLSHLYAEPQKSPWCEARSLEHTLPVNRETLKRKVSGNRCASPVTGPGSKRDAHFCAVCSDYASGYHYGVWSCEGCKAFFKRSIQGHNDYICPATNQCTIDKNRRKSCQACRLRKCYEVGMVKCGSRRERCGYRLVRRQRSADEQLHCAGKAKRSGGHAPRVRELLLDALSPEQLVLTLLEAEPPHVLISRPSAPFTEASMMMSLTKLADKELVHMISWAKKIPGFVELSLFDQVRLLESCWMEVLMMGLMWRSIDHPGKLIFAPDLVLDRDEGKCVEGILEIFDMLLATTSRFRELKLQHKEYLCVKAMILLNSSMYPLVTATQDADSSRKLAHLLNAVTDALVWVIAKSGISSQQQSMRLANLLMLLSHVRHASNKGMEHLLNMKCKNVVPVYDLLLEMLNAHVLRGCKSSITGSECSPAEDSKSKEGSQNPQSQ

Consider `C[C@]12CC[C@@H]3c4ccc(O)cc4CC[C@H]3[C@@H]1CC[C@@]2(O)c1ccc2c(c1)COC2`, for which the result in the assay with MCF7 [1] and in the assay on MCF7 [2] was Active.

For `CCOC(=O)C1(C#N)Cc2ccc([C@]3(O)CC[C@H]4[C@@H]5CCc6cc(O)ccc6[C@H]5CC[C@@]43C)cc2C1` (some centres not stated), half-maximal inhibition on Estrogen receptor beta [3] (IC50) was put at 0.0536 µM. Besides, the outcome with MCF7 [1] and in the assay with MCF7 [2] was Active. In addition, the EC50 at Estrogen receptor beta [4] came to 0.0227 µM.

As to `CC(=O)C1(C(C)=O)Cc2ccc([C@]3(O)CC[C@H]4[C@@H]5CCc6cc(O)ccc6[C@H]5CC[C@@]43C)cc2C1`, the results for the IC50 against Estrogen receptor beta [3] and against Estrogen receptor [5] were 0.254 µM and 0.243 µM, respectively. The EC50 on Estrogen receptor [6] is 0.336 µM; on Estrogen receptor beta [4] it was 0.221 µM. The outcome in the assay on MCF7 [7] and with MCF7 [1] was Active.

The compound `CCOC(=O)C1(C(C)=O)Cc2ccc([C@]3(O)CC[C@H]4[C@@H]5CCc6cc(O)ccc6[C@H]5CC[C@@]43C)cc2C1` (some centres not stated) had an IC50 against Estrogen receptor beta [3] of 0.319 µM. In addition, the outcome in the assay on MCF7 [1] and with MCF7 [2] was Active. For the same compound, a half-maximal effect on Estrogen receptor beta [4] (EC50) was put at 0.0346 µM.

In turn, `Cc1ccc(S(=O)(=O)N2Cc3ccc([C@]4(O)CC[C@H]5[C@@H]6CCc7cc(O)ccc7[C@H]6CC[C@@]54C)cc3C2)cc1` showed an IC50 against Estrogen receptor beta [3] of 0.5 µM. For the same compound, the result with MCF7 [1] and in the assay on MCF7 [2] was Active. The same compound gave an EC50 on Estrogen receptor beta [4] of 0.242 µM.

On to `CCOC(=O)C1(C(=O)OCC)Cc2ccc([C@]3(O)CC[C@H]4[C@@H]5CCc6cc(O)ccc6[C@H]5CC[C@@]43C)cc2C1`, for which the IC50 is 1.08 µM against Estrogen receptor beta [3] and 0.492 µM against Estrogen receptor [5]. The EC50 is 0.0141 µM on Estrogen receptor [6]; 0.175 µM and 0.174 µM on Estrogen receptor beta [4]. Besides, the outcome in the assay with MCF7 [1] and in the assay on MCF7 [2] was Active. Moreover, the Ratio EC50 in the assay filed under Homo sapiens turned out to be 13.
